US8674113B2, “Compounds” (Boehringer Ingelheim International GmbH, priority 2010, dated 2014)

Molecular target: mPGES-1 in A549 cells (Homo sapiens (Human), UniProt O14684)
Assay: A549 cell-based assay (PGE2 formation, 50% human serum)
Conditions: IL-1β 5 ng/ml, 10 nM arachidonic acid, 20-24 h, read-out: mPGES-1 inhibitory effect IC50 in the cell assay
Protocol: Although the enzymatic assay is a high throughput assay the disadvantage is that it uses a recombinant protein which is not in its natural environment. Accordingly a cellular assay was established in which a cell line of human origin (A549) expressing the mPGES-1 protein was used. In addition in order to mimic the situation in humans in which compounds can be bound to plasma proteins 50% human serum is added in the assay.
A549 cells (ATCC: CCL-185) are grown to about 90% confluence in F-12K Nutrient Mixture (Kaighn's Mod. Gibco) containing 10% FBS in a humified incubator at 37° C. and 5% CO2. Cells were detached using Trypsin-EDTA. A549 cells were seeded in a 384-well collagene plate at a density of 7000 cells/well (50 μl) in F-12 medium containing 1% Penicillin-Streptomycin and 50% human serum. The cells were allowed to attach for 3-4 h. After that the cells were incubated for 20-24 h in F-12k medium supplemented with 50% human serum, 1% Penicillin-Streptomycin and containing IL-1β at a final concentration of 5 ng/ml as well as 10 nM arachidonic acid in the presence of a vehicle or a test compound. The total volume is 100 μl.
Concentrations of PGE2 in the cell free medium (10 μl) were measured using a commercially available HTRF kit from Cisbio (as described above). The PGE2 formation in the absence of test compound was taken as 100%.
IC50 values were derived from at 6-8 point titrations using conventional software.

mPGES-1 in A549 cells, sequence (O14684 whole entry): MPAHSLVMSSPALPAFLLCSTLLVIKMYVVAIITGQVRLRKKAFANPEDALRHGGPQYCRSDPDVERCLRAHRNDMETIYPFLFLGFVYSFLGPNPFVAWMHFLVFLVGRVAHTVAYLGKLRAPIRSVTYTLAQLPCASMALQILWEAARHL

`CNc1cc(C(=O)NCc2ccc(Cl)c(Nc3nc4cc(C(=O)N[C@H]5CC[C@H](C(F)(F)F)CC5)c(N5CC6CC6C5)cc4n3C)c2Cl)ccn1` (some centres unmarked) [Example 203] gave an IC50 of 46 nM.

In the case of `Cn1c(Nc2c(Cl)ccc(CNC(=O)c3cc(CO)ccn3)c2Cl)nc2cc(C(=O)NCCC(F)(F)F)c(N3CCC(C(F)(F)F)CC3)cc21` [Example 181], the IC50 is reported as greater than 100 nM.

For `Cn1c(Nc2c(Cl)ccc(CNC(=O)c3cnc(N)s3)c2Cl)nc2cc(C(=O)N[C@H]3CC[C@H](C(F)(F)F)CC3)c(N3CC4CC4C3)cc21` (some centres unmarked) [Example 226], the IC50 was 98 nM.

`CNc1cncc(C(=O)NCc2ccc(Cl)c(Nc3nc4cc(C(=O)N[C@H]5CC[C@H](C(F)(F)F)CC5)c(N5CC6CC6C5)cc4n3C)c2Cl)c1` (some centres unmarked) [Example 198] showed an IC50 greater than 100 nM.

`Cn1c(Nc2c(Cl)ccc(CNC(=O)c3csc(N)n3)c2Cl)nc2cc(C(=O)N[C@H]3CC[C@H](C(F)(F)F)CC3)c(N3CC4CC4C3)cc21` (some centres unmarked) [Example 229] gave an IC50 of 4.6 nM.

Work on `Cn1c(Nc2c(Cl)ccc(CNC(=O)c3c[nH]cn3)c2Cl)nc2cc(C(=O)N[C@H]3CC[C@H](C(F)(F)F)CC3)c(N3CC4CC4C3)cc21` (some centres unmarked) [Example 220] yielded an IC50 of 119 nM.

In the case of `Cc1ccnc(C(=O)NCc2ccc(Cl)c(Nc3nc4cc(C(=O)N[C@H]5CC[C@H](C(F)(F)F)CC5)c(N5CC6CC6C5)cc4n3C)c2Cl)c1` (some centres unmarked) [Example 196], the IC50 is reported as 9 nM.

Work on `Cn1c(Nc2c(Cl)ccc(CNC(=O)C(C)(C)C)c2Cl)nc2cc(C(=O)Nc3ccc(OC(F)(F)F)cc3)c(N3CCC(F)CC3)cc21` [Example 267] yielded an IC50 of 1.7 nM.

For `CC(C)(C)C(=O)NCc1ccc(Cl)c(Nc2nc3cc(C(=O)Nc4ccc(OC(F)(F)F)cc4)c(N4CCC(C(F)(F)F)CC4)cc3n2CCC(N)=O)c1Cl` [Example 169], the IC50 was 5 nM.

Work on `CN(C)c1ccnc(C(=O)NCc2ccc(Cl)c(Nc3nc4cc(C(=O)N[C@H]5CC[C@H](C(F)(F)F)CC5)c(N5CC6CC6C5)cc4n3C)c2Cl)c1` (some centres unmarked) [Example 195] yielded an IC50 of 51 nM.

`Cn1c(Nc2c(Cl)ccc(CNC(=O)c3ccc(C#N)nc3)c2Cl)nc2cc(C(=O)N[C@H]3CC[C@H](C(F)(F)F)CC3)c(N3CC4CC4C3)cc21` (some centres unmarked) [Example 212] was tested, and the IC50 was 1.7 nM.

`CN(Cc1nnc[nH]1)c1cc2c(cc1C(=O)N[C@H]1CC[C@H](C(F)(F)F)CC1)nc(Nc1c(Cl)ccc(CNC(=O)C(C)(C)C)c1Cl)n2C` [Example 114] gave an IC50 of 3.5 nM.

Compound `CN(Cc1ncnn1C)c1cc2c(cc1C(=O)N[C@H]1CC[C@H](C(F)(F)F)CC1)nc(Nc1c(Cl)ccc(CNC(=O)C(C)(C)C)c1Cl)n2C` [Example 116] has an IC50 of 80 nM.

With `Cc1nc(C(=O)NCc2ccc(Cl)c(Nc3nc4cc(C(=O)N[C@H]5CC[C@H](C(F)(F)F)CC5)c(N5CC6CC6C5)cc4n3C)c2Cl)cs1` (some centres unmarked) [Example 228] the IC50 was greater than 100 nM.

Work on `Cn1c(Nc2c(Cl)ccc(CNC(=O)C3(O)CC3)c2Cl)nc2cc(C(=O)N[C@H]3CC[C@H](C(F)(F)F)CC3)c(N3CC4CC4C3)cc21` (some centres unmarked) [Example 189] yielded an IC50 of 3 nM.

In the case of `Cn1c(Nc2c(Cl)ccc(CNC(=O)[C@@](C)(O)C(F)(F)F)c2Cl)nc2cc(C(=O)N[C@H]3CC[C@H](C(F)(F)F)CC3)c(N3CC4CC4C3)cc21` (some centres unmarked) [Example 192], the IC50 is reported as 1 nM.

With `CCn1c(C(=O)NCc2ccc(Cl)c(Nc3nc4cc(C(=O)N[C@H]5CC[C@H](C(F)(F)F)CC5)c(N5CC6CC6C5)cc4n3C)c2Cl)cccc1=O` (some centres unmarked) [Example 210] the IC50 was 8 nM.

With `Cn1ccnc1C(=O)NCc1ccc(Cl)c(Nc2nc3cc(C(=O)N[C@H]4CC[C@H](C(F)(F)F)CC4)c(N4CC5CC5C4)cc3n2C)c1Cl` (some centres unmarked) [Example 216] the IC50 was 27 nM.

For `CC(C)(F)C(=O)NCc1ccc(Cl)c(Nc2nc3cc(C(=O)NCCC(F)(F)F)c(N4CCC(C(F)(F)F)CC4)cc3n2C(C)(C)CO)c1Cl` [Example 269], the IC50 was 55 nM.

For `Cn1c(Nc2c(Cl)ccc(CNC(=O)c3cn[nH]c3)c2Cl)nc2cc(C(=O)N[C@H]3CC[C@H](C(F)(F)F)CC3)c(N3CC4CC4C3)cc21` (some centres unmarked) [Example 221], the IC50 was 53 nM.

With `CC(C)(C)C(=O)NCc1ccc(Cl)c(Nc2nc3cc(C(=O)N[C@H]4CC[C@H](C(F)(F)F)CC4)c(N4CCC(C(F)(F)F)CC4)cc3n2CCC(N)=O)c1Cl` [Example 171] the IC50 was 6 nM.

`Cc1cc(C(=O)NCc2ccc(Cl)c(Nc3nc4cc(C(=O)N[C@H]5CC[C@H](C(F)(F)F)CC5)c(N5CC6CC6C5)cc4n3C)c2Cl)no1` (some centres unmarked) [Example 223] gave an IC50 of 12 nM.

With `Cc1ccc(C(=O)NCc2ccc(Cl)c(Nc3nc4cc(C(=O)N[C@H]5CC[C@H](C(F)(F)F)CC5)c(N5CC6CC6C5)cc4n3C)c2Cl)nc1C` (some centres unmarked) [Example 199] the IC50 was 8 nM.

In the case of `Cn1c(Nc2c(Cl)ccc(CNC(=O)c3ncn[nH]3)c2Cl)nc2cc(C(=O)N[C@H]3CC[C@H](C(F)(F)F)CC3)c(N3CC4CC4C3)cc21` (some centres unmarked) [Example 215], the IC50 is reported as greater than 100 nM.

In the case of `Cn1c(Nc2c(Cl)ccc(CNC(=O)C(C)(C)C)c2Cl)nc2cc(C(=O)N[C@H]3CC[C@H](C(F)(F)F)CC3)c(N3CCC(F)CC3)cc21` [Example 125], the IC50 is reported as 1.4 nM.

`Cc1cc(C(=O)NCc2ccc(Cl)c(Nc3nc4cc(C(=O)N[C@H]5CC[C@H](C(F)(F)F)CC5)c(N5CC6CC6C5)cc4n3C)c2Cl)nn1C` (some centres unmarked) [Example 219] was tested, and the IC50 was greater than 100 nM.

`Cc1noc(N)c1C(=O)NCc1ccc(Cl)c(Nc2nc3cc(C(=O)N[C@H]4CC[C@H](C(F)(F)F)CC4)c(N4CC5CC5C4)cc3n2C)c1Cl` (some centres unmarked) [Example 222] gave an IC50 of 100 nM.

`Cn1c(Nc2c(Cl)ccc(CNC(=O)c3cncc(O)c3)c2Cl)nc2cc(C(=O)N[C@H]3CC[C@H](C(F)(F)F)CC3)c(N3CC4CC4C3)cc21` (some centres unmarked) [Example 205] was tested, and the IC50 was greater than 100 nM.

Work on `Cn1c(Nc2c(Cl)ccc(CNC(=O)C(C)(C)F)c2Cl)nc2cc(C(=O)Nc3ccc(OC(F)(F)F)cc3)c(N3CCOCC3)cc21` [Example 142] yielded an IC50 of 2 nM.

With `Cn1c(Nc2c(Cl)ccc(CNC(=O)c3cc(O)[nH]n3)c2Cl)nc2cc(C(=O)N[C@H]3CC[C@H](C(F)(F)F)CC3)c(N3CC4CC4C3)cc21` (some centres unmarked) [Example 218] the IC50 was 98 nM.

Work on `Cn1c(Nc2c(Cl)ccc(CNC(=O)C3(C(F)(F)F)CC3)c2Cl)nc2cc(C(=O)N[C@H]3CC[C@H](C(F)(F)F)CC3)c(N3CC4CC4C3)cc21` (some centres unmarked) [Example 188] yielded an IC50 of 1 nM.

With `CNc1cncc(C(=O)NCc2ccc(Cl)c(Nc3nc4cc(C(=O)N[C@H]5CC[C@H](C(F)(F)F)CC5)c(N5CC6CC6C5)cc4n3C)c2Cl)n1` (some centres unmarked) [Example 214] the IC50 was 113 nM.

For `Cn1c(Nc2c(Cl)ccc(CNC(=O)C(C)(C)F)c2Cl)nc2cc(C(=O)N[C@H]3CC[C@H](C(F)(F)F)CC3)c(N3CCOCC3)cc21` [Example 146], the IC50 was less than 1 nM.

For `COc1cncc(C(=O)NCc2ccc(Cl)c(Nc3nc4cc(C(=O)N[C@H]5CC[C@H](C(F)(F)F)CC5)c(N5CC6CC6C5)cc4n3C)c2Cl)n1` (some centres unmarked) [Example 213], the IC50 was 41 nM.

Work on `Cn1c(Nc2c(Cl)ccc(CNC(=O)c3cc(CO)ccn3)c2Cl)nc2cc(C(=O)N[C@H]3CC[C@H](C(F)(F)F)CC3)c(N3CC4CC4C3)cc21` (some centres unmarked) [Example 207] yielded an IC50 of 170 nM.

Work on `Cn1c(Nc2c(Cl)ccc(CNC(=O)OC(C)(C)C)c2Cl)nc2cc(C(=O)NCCC(F)(F)F)c(N3CC4CC4C3)cc21` (centres unmarked) [Example 266] yielded an IC50 of 23 nM.

`Cn1c(Nc2c(Cl)ccc(CNC(=O)C(C)(C)F)c2Cl)nc2cc(C(=O)N[C@H]3CC[C@H](C(F)(F)F)CC3)c(N3CC4CC4C3)cc21` (some centres unmarked) [Example 191] was tested, and the IC50 was 2 nM.

`Cn1c(Nc2c(Cl)ccc(CNC(=O)c3cccc(CO)n3)c2Cl)nc2cc(C(=O)N[C@H]3CC[C@H](C(F)(F)F)CC3)c(N3CC4CC4C3)cc21` (some centres unmarked) [Example 206] showed an IC50 of 42 nM.

`CC(C)(O)Cn1c(Nc2c(Cl)ccc(CNC(=O)C(C)(C)C)c2Cl)nc2cc(C(=O)Nc3ccc(OC(F)(F)F)cc3)c(N3CCC(C(F)(F)F)CC3)cc21` [Example 167] showed an IC50 of 2.4 nM.

For `Cn1c(Nc2c(Cl)ccc(CNC(=O)C(C)(C)CO)c2Cl)nc2cc(C(=O)N[C@H]3CC[C@H](C(F)(F)F)CC3)c(N3CC4CC4C3)cc21` (some centres unmarked) [Example 194], the IC50 was 2.1 nM.

Compound `Cn1c(Nc2c(Cl)ccc(CNC(=O)c3c(F)cncc3F)c2Cl)nc2cc(C(=O)N[C@H]3CC[C@H](C(F)(F)F)CC3)c(N3CC4CC4C3)cc21` (some centres unmarked) [Example 201] has an IC50 of 6 nM.

`Cn1c(Nc2c(Cl)ccc(CNC(=O)C(C)(C)C)c2Cl)nc2cc(C(=O)N[C@H]3CC[C@H](C(F)(F)F)CC3)c(N3CCC(C(F)(F)F)CC3)cc21` [Example 52, N-(trans-4-Trifluoromethyl-cyclohexyl)-2-{2,6-dichloro-3-[(2,2-dimethyl-propionylamino)-methyl]-phenylamino}-6-[4-trifluoromethyl-piperidinyl]-1-methyl-1H-benzimidazole-5-carboxylic acid amide] gave an IC50 of less than 1 nM.

Compound `Cc1nc(C)c(C(=O)NCc2ccc(Cl)c(Nc3nc4cc(C(=O)N[C@H]5CC[C@H](C(F)(F)F)CC5)c(N5CC6CC6C5)cc4n3C)c2Cl)s1` (some centres unmarked) [Example 227] has an IC50 of 43 nM.

Compound `Cn1c(Nc2c(Cl)ccc(CNC(=O)C(C)(C)C)c2Cl)nc2cc(C(=O)N[C@H]3CC[C@@H](C(F)(F)F)CC3)c(N3CC4CC4C3)cc21` (some centres unmarked) [Example 155] has an IC50 of 6 nM.

`Cn1c(Nc2c(Cl)ccc(CNC(=O)C(C)(C)F)c2Cl)nc2cc(C(=O)N[C@H]3CC[C@H](C(F)(F)F)CC3)c(N3CCC4(CC3)CC4)cc21` [Example 123] gave an IC50 of 1 nM.

Compound `CC(C)(C)C(=O)NCc1ccc(Cl)c(Nc2nc3cc(C(=O)N[C@H]4CC[C@H](C(F)(F)F)CC4)c(N4CCOCC4)cc3n2CCC(N)=O)c1Cl` [Example 170] has an IC50 of 110 nM.

Compound `Cn1c(Nc2c(Cl)ccc(CNC(=O)C(C)(C)C)c2Cl)nc2cc(C(=O)Nc3cc(C(C)(C)C)no3)c(N3CCC(C(F)(F)F)CC3)cc21` [Example 157] has an IC50 of 1 nM.
